These are literature values, as cited in paper PMC10994248 (The Oncologist, 2024).

In the series the test system is FGFR2 fusion or rearranged cholangiocarcinoma. The settings on record: after failure of first-line chemotherapy ref 20-22; cited from earlier work.

Regarding `CCN1C(=O)N(c2c(F)c(OC)cc(OC)c2F)Cc2cnc3[nH]c(CN4CCOCC4)cc3c21` [pemigatinib], the Objective response rate is on record as 36%. For the compound `CCN1CCN(c2ccc(Nc3cc(N(C)C(=O)Nc4c(Cl)c(OC)cc(OC)c4Cl)ncn3)cc2)CC1` [infigratinib], the Objective response rate was 23%.
